Here are results for 104 molecules from PubChem BioAssay AID1996.

Converted amounts (≈) assume the structure as drawn. A value given as a limit tells only on which side of the number the result lay.

For this data set the following is noted: buffer; pH 7.4; 200.0 µM.
The term kinetic solubility denotes solubility judged after dilution from a stock solution rather than from solid. Consider `COc1cccc2cc(C(N)=O)oc12`, for which the kinetic solubility was greater than 28.7 µg/mL. `O=c1cc(-c2ccccc2O)nc(-c2ccccc2)[nH]1` registered a kinetic solubility of 0.8 µg/mL (≈ 3.03 µM). As for `O=Cc1c(C(=O)O)n(Cc2ccc(F)cc2Cl)c2ccccc12`, the solubility (kinetic) was greater than 49.8 µg/mL. As for `COc1ccc(NC(=O)c2ccc(C)cc2)cc1`, the kinetic solubility is 5.4 µg/mL (≈ 22.4 µM). The molecule `COc1cccc(CNc2ccc3c(c2)nc(C)n3C)c1OC` came in with a kinetic solubility of 44.8 µg/mL (≈ 144 µM).

Take `COc1cc(OC)cc(C(=O)OCC(=O)Nc2cccc(S(=O)(=O)NC3=NCCCCC3)c2)c1`: the kinetic solubility was 33.3 µg/mL (≈ 68 µM).

Molecule `CN1CCC2(CC1)NC(=O)c1ccccc1N2.Cl` came in with a kinetic solubility greater than 40.2 µg/mL. Then `CCOc1ccc2[nH]c3c(c2c1)CNCC3`, with 25.9 µg/mL (≈ 120 µM); and `CCOC(=O)c1ccc(Oc2cc(C)nc(Cl)n2)cc1`, with greater than 43.9 µg/mL.

In turn, `COc1ccc(CC(=O)Nc2ccc(OC)nc2)cc1` registered a kinetic solubility greater than 40.8 µg/mL. Turning to `O=C1Nc2ccc([N+](=O)[O-])cc2OC1CCN1CCOCC1` (centres undefined), the solubility (kinetic) was greater than 46.1 µg/mL. With `COc1ccc(NC(=O)c2cc3ccccc3oc2=O)c(OC)c1`, the solubility (kinetic) is less than 0.7 µg/mL. `COC(=O)c1ccc(COc2ncnc3ccccc23)o1`: the kinetic solubility was greater than 42.6 µg/mL. Then `O=C(C[n+]1ccccn1)c1ccccc1.[Br-]`, with greater than 41.9 µg/mL; and `Cc1ccc(C(C)C)c(OCCn2ccnc2C)c1.O=C(O)C(=O)O`, with 46.7 µg/mL. Consider `COc1ccc(/C=C2\SC(N3CCCCC3)=NC2=O)cc1`, for which the solubility (kinetic) came out at 1.3 µg/mL (≈ 4.3 µM). `C=C(C)COc1ccc(-c2ncncc2-c2ccc(Cl)cc2)c(O)c1` had a solubility (kinetic) of less than 0.4 µg/mL. In turn, `CC(NC(=O)COC(=O)CN1C(=O)C2CCCCC2C1=O)c1ccccc1` (centres undefined) gave a solubility (kinetic) greater than 55.9 µg/mL. In the case of `CC1(C)C(=O)N(c2ccccc2)C1c1ccccc1O` (centres undefined), the solubility (kinetic) is greater than 40.1 µg/mL. `C=CCOc1ccc(/C=C2/C(=O)ON=C2C)cc1OCC`: the kinetic solubility is 28.3 µg/mL (≈ 98.5 µM). Then `c1ccc2nc(-c3ccc(-n4ccnc4)cc3)ccc2c1`, with 6.2 µg/mL (≈ 22.9 µM).

`CC(=O)c1ccc(Nc2nc(-c3cccnc3)cs2)cc1` displayed a kinetic solubility of 0.9 µg/mL (≈ 3.05 µM). In the case of `Cc1noc(C)c1COc1ccc(C(=O)Nc2ccccc2)cc1`, the kinetic solubility is 0.8 µg/mL (≈ 2.48 µM). Take `COc1ccc(N2CCN(C(=S)Nc3ccccc3)CC2)cc1`: the kinetic solubility turned out to be 1.3 µg/mL (≈ 3.97 µM). Then `Clc1ccc(OCCN2CCOCC2)cc1`, with 28.7 µg/mL (≈ 119 µM). Then `N#Cc1ccccc1OCC(=O)NC(=O)NC1CCS(=O)(=O)C1` (centres undefined), with greater than 50.6 µg/mL; and `O=C(Cc1ccccc1[N+](=O)[O-])OCC(=O)c1ccccc1Br`, with 39.1 µg/mL (≈ 103 µM). Then `O=C(CS(=O)(=O)c1ccccc1)Nc1cccnc1`, with greater than 41.4 µg/mL. Molecule `CCOc1ccc(NC(=O)COC(=O)Cn2nc(C)c([N+](=O)[O-])c2C)cc1OCC` had a kinetic solubility greater than 63.1 µg/mL.

`CCOc1cc(/C=C\c2nc(O)c([N+](=O)[O-])c(=O)[nH]2)ccc1OC(C)C` yielded a kinetic solubility greater than 54.2 µg/mL.

Consider `Cc1[nH]c2ccccc2c1C(=O)CSc1ccccn1`, for which the kinetic solubility was 1.4 µg/mL (≈ 4.96 µM).

Molecule `CC[N+](C)(C)c1cccc(O)c1.[Cl-]` came in with a kinetic solubility greater than 30.3 µg/mL. Turning to `Nc1ccc(Nc2nc3ccccc3[nH]2)cc1`, the kinetic solubility was found to be 25.8 µg/mL (≈ 115 µM). Then `Cc1cccc(CSc2[nH]c(=O)ncc2C)c1`, with 15.7 µg/mL (≈ 63.7 µM); and `O=C(Cc1ccc(F)cc1)NC(Cc1c[nH]c2ccccc12)C(=O)O` (centres undefined), with 46.6 µg/mL (≈ 137 µM). In turn, `COc1ccccc1CNc1ncccc1[N+](=O)[O-]` returned a kinetic solubility of 1.3 µg/mL (≈ 5.01 µM). `Nc1c(Cl)ncnc1NCCc1ccc(O)cc1` returned a solubility (kinetic) of 37.1 µg/mL (≈ 140 µM).

With `COc1cc(C(=O)O/N=C2\C=CC(=O)C(C)=C2)cc(OC)c1OC`, the solubility (kinetic) was greater than 49.7 µg/mL. Then `O=C(NC(O)C(=O)c1ccccc1)c1ccc(F)cc1` (centres undefined), with 39.7 µg/mL (≈ 145 µM).

On to `Cc1ccccc1S(=O)(=O)Nc1ncnc2ccccc12`, for which the solubility (kinetic) is greater than 44.9 µg/mL.

The molecule `CCOC(=O)Cn1c(=O)oc2cc(S(=O)(=O)NC(C)(C)CC)ccc21` displayed a kinetic solubility of 53.8 µg/mL (≈ 145 µM). Then `COC(=O)c1ccc(CNC(=O)CCC(=O)N2CCOCC2)cc1`, with greater than 50.2 µg/mL. `Cc1ccc2c(c1)sc(=NC(=O)c1cccs1)n2C` came in with a kinetic solubility of less than 0.3 µg/mL.

Regarding `CCOc1ccccc1N1CCN(C(=O)NC2CCCCC2)CC1`, the kinetic solubility is greater than 49.7 µg/mL. `CC(C)NC(=O)CN1C(=O)c2cccc3cccc1c23` had a solubility (kinetic) of 9.8 µg/mL (≈ 36.5 µM). Then `COc1ccc(CNC(=O)c2sccc2-c2ccccc2)cc1OC`, with 33.7 µg/mL (≈ 95.3 µM); and `CCOC(=O)C1=C(O)/C(=C/c2cc(C)n(-c3ccccc3)c2C)N=C1C`, with 30.7 µg/mL (≈ 87.6 µM). Molecule `O=C(NC(O)C(=O)c1ccccc1)c1ccccn1` (centres undefined) yielded a solubility (kinetic) greater than 38.4 µg/mL.

The molecule `COc1ccc(S(=O)(=O)N2CCc3ccccc32)cc1C(=O)Nc1ccc(NC(C)=O)cc1` returned a kinetic solubility of 7.2 µg/mL (≈ 15.5 µM).

`CN(CC(=O)NCc1ccccc1Cl)CC(=O)Nc1cccc(F)c1` yielded a kinetic solubility greater than 54.6 µg/mL.

`NS(=O)(=O)c1ccc(CNC(=O)CSc2nc3ccc(Cl)cc3[nH]2)cc1`: the kinetic solubility is 10.3 µg/mL (≈ 25.1 µM). In turn, `Cc1c(C(=O)N2C[C@@H](C)O[C@@H](C)C2)oc2c(F)cccc12` yielded a solubility (kinetic) greater than 43.7 µg/mL.

For the molecule `CCOC(=O)c1ccc(Nc2cc(C)nc(-c3ccccc3)n2)cc1`, the solubility (kinetic) is less than 0.2 µg/mL. With `COc1ccc(CCC(=O)NCc2ccccc2OC)cc1` the figure was greater than 44.9 µg/mL. Then `O=C(O)CCSC1CC(=O)N(c2ccccc2)C1=O` (centres undefined), with greater than 41.9 µg/mL; and `O=C1Nc2ccccc2C1=Nc1cccc(Cl)c1`, with 28.2 µg/mL (≈ 110 µM); and `COc1ccc(CNC(=O)Cc2cccs2)cc1OC`, with 42.6 µg/mL (≈ 146 µM). Then `Cc1cccc(NS(=O)(=O)Cc2ccccc2)c1C`, with 35.6 µg/mL (≈ 129 µM); and `NC(=O)CN(Cc1ccccc1)S(=O)(=O)c1ccc2c(c1)OCCO2`, with greater than 54.4 µg/mL. Take `Cc1ccc(S(=O)(=O)N2CCC(C(=O)Nc3cccnc3)CC2)cc1`: the kinetic solubility is greater than 53.9 µg/mL. With `O=C(NC(=S)N1CCc2ccccc21)c1ccccc1Cl` the figure was 46.6 µg/mL (≈ 147 µM); with `O=C(CSc1ccccc1)NCCc1ccccc1`, 39.4 µg/mL (≈ 145 µM); with `CCN(C(=O)CN1C(=O)c2ccc([N+](=O)[O-])cc2C1=O)C1CCCCC1`, greater than 53.9 µg/mL. With `O=C(NCc1ccc2c(c1)OCO2)c1ccc(Br)cc1` the figure was 3.1 µg/mL (≈ 9.28 µM); with `Cc1cccc(N2C(S)=C(C#N)C(=O)NC2c2ccco2)c1` (centres undefined), greater than 46.7 µg/mL. Then `COc1cc(CN2CCN(c3ncccn3)CC2)cc(OC)c1`, with greater than 47.2 µg/mL. The molecule `Cc1[nH]c2ccc(F)cc2c1CCN1C(=O)OC(C)(C)C1(C)O` (centres undefined) came in with a kinetic solubility greater than 48.1 µg/mL. With `Cc1cc(C(=O)NNC(=O)C(CCC(N)=O)NS(=O)(=O)c2ccc(Cl)cc2)c(C)o1` (centres undefined) the figure was greater than 68.5 µg/mL; with `O=C1NC(=S)N(C(=O)c2ccc(F)cc2)/C1=C/c1cccnc1`, 2 µg/mL (≈ 6.11 µM); with `CCN(CC)c1ccc(CNCCc2ccccc2F)cc1.Cl`, greater than 50.5 µg/mL. Take `Cc1nc(-c2ccc(NC(=O)c3ccco3)cc2)cs1`: the kinetic solubility was 18.2 µg/mL (≈ 64 µM).

Molecule `Cn1c(/C=C/c2ccc(Cl)cc2)nc2ccccc2c1=O` yielded a kinetic solubility of less than 0.3 µg/mL. In the case of `Cc1ccc(CN(CCO)CCO)cc1`, the solubility (kinetic) was 29.4 µg/mL (≈ 140 µM). Then `c1ccc(CCNCCOc2ccccc2)cc1`, with 22.8 µg/mL (≈ 94.5 µM); and `CCN(CC)Cc1c(O)ccc2occ(C(=O)c3ccccc3)c12`, with 37.7 µg/mL (≈ 117 µM). With `COc1ccc(NC(=O)c2ccco2)c2ccccc12` the figure was greater than 40.1 µg/mL; with `Cc1nc2ccccc2c(=O)n1-c1ccc([N+](=O)[O-])cc1`, greater than 42.2 µg/mL. `CCOc1ccc2[nH]c(SCC(=O)OC)c([N+](=O)[O-])c2c1` registered a solubility (kinetic) of 19.1 µg/mL (≈ 61.5 µM). Then `COc1ccc(C(=O)NCCN2CCCC2)cc1.Cl`, with greater than 42.7 µg/mL; and `Cc1cc(CSc2ccccc2C(=O)O)on1`, with greater than 37.4 µg/mL. For the molecule `COCCn1c(SCC(=O)N2CCOCC2)nc2ccccc2c1=O`, the kinetic solubility was determined as 51.5 µg/mL (≈ 142 µM). With `O=C(O)CSc1nc(-c2ccccc2)nc2c1CCCC2` the figure was greater than 45.1 µg/mL; with `Cn1cccc1C(=O)OCC(=O)NCc1cccs1`, greater than 41.7 µg/mL; with `O=C(Cc1ccc(Br)cc1)Nc1ccccc1N1CCCC1`, 2.6 µg/mL (≈ 7.24 µM). Take `CCC(C)C(=O)Nc1nc2ccc(OC)cc2s1` (centres undefined): the solubility (kinetic) is greater than 39.7 µg/mL. In turn, `CC(NC(=S)Nc1ccccc1)C(c1cccs1)N1CCOCC1` (centres undefined) returned a solubility (kinetic) of 3.1 µg/mL (≈ 8.57 µM). `O=C(COC(=O)c1cccc2ccccc12)NCC1CCCO1` (centres undefined) returned a solubility (kinetic) greater than 47 µg/mL. For `Cn1nc(C(=O)NCC(c2cccs2)N2CCOCC2)c2ccccc2c1=O` (centres undefined), the solubility (kinetic) is greater than 59.8 µg/mL. Take `O=C(CN1CCN(c2ccc(O)cc2)CC1)N1CCc2ccccc21`: the kinetic solubility was found to be 5 µg/mL (≈ 14.8 µM).

Molecule `C=CCn1cnnc1SCC(=O)Nc1cccnc1Cl` registered a solubility (kinetic) greater than 46.5 µg/mL. The molecule `Nc1nc(COc2ccc(F)cc2)nc(N2CCCCC2)n1` registered a kinetic solubility of 1.9 µg/mL (≈ 6.26 µM). For the molecule `CS(=O)(=O)N(CC(=O)N1CCCC1)c1ccccc1F`, the solubility (kinetic) is greater than 45.1 µg/mL. Then `O=C1Nc2ccccc2C1=Nc1ccc(Br)cc1`, with 6.7 µg/mL (≈ 22.2 µM); and `Cn1c(CNC(=O)c2ccc(F)cc2)cc2ccccc21`, with 24.7 µg/mL (≈ 87.5 µM). With `COc1ccccc1NC(=O)N1CCC(c2nc3ccccc3o2)CC1` the figure was 44.9 µg/mL (≈ 128 µM); with `O=C(CN1C(=O)c2ccccc2S1(=O)=O)Nc1cccc(S(=O)(=O)N2CCCCC2)c1`, 34.4 µg/mL (≈ 74.2 µM); with `COc1cc(OC)c(C(=O)O/N=C(\N)c2ccccn2)cc1OC`, greater than 49.7 µg/mL. Then `COC(=O)c1ccccc1N=Cc1c(O)[nH]c(=O)[nH]c1=O`, with 8.4 µg/mL (≈ 29 µM); and `CC(=O)SCC[N+](C)(C)C.[Cl-]`, with 29.4 µg/mL; and `O=C(CSc1nnc(-c2ccncc2)o1)Nc1cc(Cl)ccc1C(=O)O`, with greater than 58.6 µg/mL. `CNC(=O)Nc1cccc(-c2ccnc(C)n2)c1`: the kinetic solubility was 27.5 µg/mL (≈ 114 µM).

As for `CN1CCN(CCC(=O)Nc2cccc(Br)c2)CC1`, the solubility (kinetic) amounted to 42.6 µg/mL (≈ 131 µM). With `O=C(OCC(=O)N1CCc2ccccc21)[C@@H]1CC(O)CN1S(=O)(=O)c1ccccc1[N+](=O)[O-]` (some centres undefined), the solubility (kinetic) came to 20.4 µg/mL (≈ 42.9 µM).

`CNC(=S)N1CCc2cc(OC)c(OC)cc2C1`: the solubility (kinetic) is greater than 40 µg/mL.
